From ChEMBL document CHEMBL1145498, “A systematic interaction map of validated kinase inhibitors with Ser/Thr kinases” (Proc Natl Acad Sci U S A, 2007)

Target: Serine/threonine-protein kinase 26 (Homo sapiens) (UniProt Q9P289)
Sequence (Q9P289 2-416 limits assumed): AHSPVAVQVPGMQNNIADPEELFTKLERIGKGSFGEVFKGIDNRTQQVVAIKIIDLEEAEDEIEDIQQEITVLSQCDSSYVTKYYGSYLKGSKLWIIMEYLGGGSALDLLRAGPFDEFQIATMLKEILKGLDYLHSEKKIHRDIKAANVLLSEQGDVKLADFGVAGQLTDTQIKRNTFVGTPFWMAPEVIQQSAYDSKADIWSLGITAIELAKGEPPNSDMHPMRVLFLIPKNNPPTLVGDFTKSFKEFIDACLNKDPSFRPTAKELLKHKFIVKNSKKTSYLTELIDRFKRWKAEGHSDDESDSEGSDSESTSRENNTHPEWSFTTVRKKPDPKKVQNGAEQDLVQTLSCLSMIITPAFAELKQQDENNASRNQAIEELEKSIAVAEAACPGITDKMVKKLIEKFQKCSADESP

Compound	ΔTm [°C]
COc1cccc(-c2cc(=O)c3ccccc3o2)c1N	-0.1
CC(C)n1cnc2/c(=N/c3cccc(Cl)c3)nc(NCCO)[nH]c21	2.1
NC(=O)c1ccc2[nH]c(-c3ccc(Oc4ccc(Cl)cc4)cc3)nc2c1	-0.1

Target: T1, Mitogen-activated protein kinase kinase kinase 5 (Homo sapiens) (UniProt Q99683)
T1 sequence (whole entry): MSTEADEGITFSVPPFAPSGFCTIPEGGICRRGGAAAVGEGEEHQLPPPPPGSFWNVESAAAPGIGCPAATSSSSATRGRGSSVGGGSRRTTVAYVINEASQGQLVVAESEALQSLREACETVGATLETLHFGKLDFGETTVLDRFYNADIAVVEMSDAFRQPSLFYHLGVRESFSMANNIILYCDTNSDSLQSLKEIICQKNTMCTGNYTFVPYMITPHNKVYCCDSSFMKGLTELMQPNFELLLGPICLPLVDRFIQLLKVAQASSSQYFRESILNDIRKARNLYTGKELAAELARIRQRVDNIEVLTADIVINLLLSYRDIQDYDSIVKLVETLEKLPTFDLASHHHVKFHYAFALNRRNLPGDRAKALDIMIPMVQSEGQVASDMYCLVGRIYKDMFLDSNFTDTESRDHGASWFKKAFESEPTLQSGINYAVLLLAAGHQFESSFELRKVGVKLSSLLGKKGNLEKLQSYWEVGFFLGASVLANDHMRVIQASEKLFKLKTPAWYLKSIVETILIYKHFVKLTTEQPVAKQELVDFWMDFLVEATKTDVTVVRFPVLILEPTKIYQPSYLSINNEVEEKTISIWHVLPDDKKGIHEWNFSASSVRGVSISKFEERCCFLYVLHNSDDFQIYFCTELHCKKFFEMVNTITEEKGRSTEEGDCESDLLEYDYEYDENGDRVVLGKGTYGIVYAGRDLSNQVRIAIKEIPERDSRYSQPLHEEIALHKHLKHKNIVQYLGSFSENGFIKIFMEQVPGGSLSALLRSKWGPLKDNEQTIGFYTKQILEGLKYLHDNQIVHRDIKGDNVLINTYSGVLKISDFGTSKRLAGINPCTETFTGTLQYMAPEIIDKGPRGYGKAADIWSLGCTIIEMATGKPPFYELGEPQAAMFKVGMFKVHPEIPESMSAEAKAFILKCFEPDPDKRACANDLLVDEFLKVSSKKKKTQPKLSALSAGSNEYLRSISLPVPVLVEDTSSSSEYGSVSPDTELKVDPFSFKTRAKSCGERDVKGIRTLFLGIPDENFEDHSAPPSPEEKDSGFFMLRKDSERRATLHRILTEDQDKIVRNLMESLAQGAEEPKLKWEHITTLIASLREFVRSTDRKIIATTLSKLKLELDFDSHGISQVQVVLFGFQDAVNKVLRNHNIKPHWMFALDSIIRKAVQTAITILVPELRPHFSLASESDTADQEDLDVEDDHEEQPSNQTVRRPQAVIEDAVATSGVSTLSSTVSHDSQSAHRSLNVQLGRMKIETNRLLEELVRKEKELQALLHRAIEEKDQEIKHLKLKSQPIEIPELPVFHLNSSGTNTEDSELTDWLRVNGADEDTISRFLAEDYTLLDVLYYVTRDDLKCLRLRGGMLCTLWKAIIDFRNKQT

Compound	ΔTm [°C]
COc1cccc(-c2cc(=O)c3ccccc3o2)c1N	-0.1
CC(C)n1cnc2/c(=N/c3cccc(Cl)c3)nc(NCCO)[nH]c21	0.4
NC(=O)c1ccc2[nH]c(-c3ccc(Oc4ccc(Cl)cc4)cc3)nc2c1	1

Target: cAMP-dependent protein kinase catalytic subunit alpha (Homo sapiens) (UniProt P17612)

Compound	ΔTm [°C]
COc1cccc(-c2cc(=O)c3ccccc3o2)c1N	0.3
CC(C)n1cnc2/c(=N/c3cccc(Cl)c3)nc(NCCO)[nH]c21	1.4
NC(=O)c1ccc2[nH]c(-c3ccc(Oc4ccc(Cl)cc4)cc3)nc2c1	0.4

Target: Serine/threonine-protein kinase 38 (Homo sapiens) (UniProt Q15208)
Sequence (Q15208 2-465 limits assumed): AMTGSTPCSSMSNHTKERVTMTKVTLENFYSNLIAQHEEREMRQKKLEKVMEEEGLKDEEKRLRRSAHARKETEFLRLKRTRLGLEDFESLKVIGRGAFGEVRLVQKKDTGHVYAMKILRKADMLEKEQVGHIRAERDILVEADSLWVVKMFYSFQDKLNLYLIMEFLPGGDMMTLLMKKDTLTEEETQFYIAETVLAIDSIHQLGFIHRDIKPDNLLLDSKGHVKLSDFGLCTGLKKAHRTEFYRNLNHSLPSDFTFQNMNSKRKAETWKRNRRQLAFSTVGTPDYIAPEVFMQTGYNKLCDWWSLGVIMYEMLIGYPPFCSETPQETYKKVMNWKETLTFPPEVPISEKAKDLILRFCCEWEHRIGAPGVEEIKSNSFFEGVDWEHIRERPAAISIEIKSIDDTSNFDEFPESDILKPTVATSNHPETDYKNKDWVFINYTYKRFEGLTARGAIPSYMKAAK

Compound	ΔTm [°C]
COc1cccc(-c2cc(=O)c3ccccc3o2)c1N	0.2
CC(C)n1cnc2/c(=N/c3cccc(Cl)c3)nc(NCCO)[nH]c21	2.7
NC(=O)c1ccc2[nH]c(-c3ccc(Oc4ccc(Cl)cc4)cc3)nc2c1	1.7

Target: Calcium/calmodulin-dependent protein kinase kinase 2 (Homo sapiens, UniProt Q96RR4)
Sequence (Q96RR4 2-588 limits assumed): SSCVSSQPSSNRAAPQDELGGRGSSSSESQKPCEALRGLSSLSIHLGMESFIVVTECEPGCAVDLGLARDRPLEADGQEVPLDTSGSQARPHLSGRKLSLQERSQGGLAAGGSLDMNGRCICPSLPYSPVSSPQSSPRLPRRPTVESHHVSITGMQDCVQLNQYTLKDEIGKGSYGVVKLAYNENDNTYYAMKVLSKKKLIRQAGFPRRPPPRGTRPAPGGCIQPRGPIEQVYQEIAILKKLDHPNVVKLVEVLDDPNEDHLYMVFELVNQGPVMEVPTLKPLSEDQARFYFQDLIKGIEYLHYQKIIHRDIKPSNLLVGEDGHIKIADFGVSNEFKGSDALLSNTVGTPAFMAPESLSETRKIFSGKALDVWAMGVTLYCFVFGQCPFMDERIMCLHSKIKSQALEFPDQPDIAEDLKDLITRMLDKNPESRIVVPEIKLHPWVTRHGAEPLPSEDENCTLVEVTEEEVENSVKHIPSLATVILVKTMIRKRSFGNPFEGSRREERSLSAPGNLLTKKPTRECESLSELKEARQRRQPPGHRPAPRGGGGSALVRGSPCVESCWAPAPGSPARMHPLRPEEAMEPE

Compound	ΔTm [°C]
COc1cccc(-c2cc(=O)c3ccccc3o2)c1N	-0.4
CC(C)n1cnc2/c(=N/c3cccc(Cl)c3)nc(NCCO)[nH]c21	2.3
NC(=O)c1ccc2[nH]c(-c3ccc(Oc4ccc(Cl)cc4)cc3)nc2c1	2.4

Target: Serine/threonine-protein kinase 10 (Homo sapiens) (UniProt O94804)
Sequence (O94804 whole entry, looked up): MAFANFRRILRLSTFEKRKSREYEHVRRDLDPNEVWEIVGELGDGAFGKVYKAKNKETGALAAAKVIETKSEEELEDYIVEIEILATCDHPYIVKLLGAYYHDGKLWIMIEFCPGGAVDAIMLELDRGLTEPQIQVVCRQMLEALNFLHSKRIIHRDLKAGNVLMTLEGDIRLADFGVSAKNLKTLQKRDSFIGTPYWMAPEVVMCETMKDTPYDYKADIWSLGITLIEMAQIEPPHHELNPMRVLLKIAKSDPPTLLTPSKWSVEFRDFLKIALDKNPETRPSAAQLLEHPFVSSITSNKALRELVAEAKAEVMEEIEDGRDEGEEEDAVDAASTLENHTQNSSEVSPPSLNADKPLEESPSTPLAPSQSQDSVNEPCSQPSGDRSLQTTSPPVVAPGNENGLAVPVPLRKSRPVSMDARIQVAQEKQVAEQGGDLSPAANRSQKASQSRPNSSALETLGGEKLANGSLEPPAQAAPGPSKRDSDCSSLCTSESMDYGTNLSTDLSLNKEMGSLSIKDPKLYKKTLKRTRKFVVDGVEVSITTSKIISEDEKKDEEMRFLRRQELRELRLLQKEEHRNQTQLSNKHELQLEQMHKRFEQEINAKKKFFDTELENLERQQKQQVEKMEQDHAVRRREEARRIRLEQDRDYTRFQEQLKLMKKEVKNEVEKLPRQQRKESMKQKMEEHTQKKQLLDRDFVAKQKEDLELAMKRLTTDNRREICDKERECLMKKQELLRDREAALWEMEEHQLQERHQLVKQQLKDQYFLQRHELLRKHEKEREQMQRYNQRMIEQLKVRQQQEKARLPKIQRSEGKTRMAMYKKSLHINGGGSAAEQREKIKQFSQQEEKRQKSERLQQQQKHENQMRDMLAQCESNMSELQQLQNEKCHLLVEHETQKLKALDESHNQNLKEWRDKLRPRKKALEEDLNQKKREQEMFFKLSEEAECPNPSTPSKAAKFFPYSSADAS

Compound	ΔTm [°C]
COc1cccc(-c2cc(=O)c3ccccc3o2)c1N	0.4
CC(C)n1cnc2/c(=N/c3cccc(Cl)c3)nc(NCCO)[nH]c21	2
NC(=O)c1ccc2[nH]c(-c3ccc(Oc4ccc(Cl)cc4)cc3)nc2c1	0.3

Target: Serine/threonine-protein kinase PAK 6 (Homo sapiens) (UniProt Q9NQU5)
Sequence (Q9NQU5 whole entry, looked up): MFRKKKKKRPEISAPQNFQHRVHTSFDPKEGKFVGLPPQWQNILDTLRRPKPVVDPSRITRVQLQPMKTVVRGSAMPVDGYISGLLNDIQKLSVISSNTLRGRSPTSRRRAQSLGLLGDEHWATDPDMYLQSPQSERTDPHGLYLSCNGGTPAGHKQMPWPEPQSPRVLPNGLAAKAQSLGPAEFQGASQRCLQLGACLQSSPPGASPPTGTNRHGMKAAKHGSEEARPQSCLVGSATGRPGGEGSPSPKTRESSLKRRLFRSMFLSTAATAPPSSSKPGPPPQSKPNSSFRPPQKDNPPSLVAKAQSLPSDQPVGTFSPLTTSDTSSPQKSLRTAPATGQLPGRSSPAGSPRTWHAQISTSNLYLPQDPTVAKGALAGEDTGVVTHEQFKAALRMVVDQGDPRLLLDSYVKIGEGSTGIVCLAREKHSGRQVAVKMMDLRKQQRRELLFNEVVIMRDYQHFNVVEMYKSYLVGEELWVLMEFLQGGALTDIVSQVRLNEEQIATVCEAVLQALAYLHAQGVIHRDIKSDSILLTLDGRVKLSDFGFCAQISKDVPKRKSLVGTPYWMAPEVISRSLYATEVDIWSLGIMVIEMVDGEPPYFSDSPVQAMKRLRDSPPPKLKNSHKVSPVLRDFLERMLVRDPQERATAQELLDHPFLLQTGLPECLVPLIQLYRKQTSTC

Compound	ΔTm [°C]
COc1cccc(-c2cc(=O)c3ccccc3o2)c1N	0.4
CC(C)n1cnc2/c(=N/c3cccc(Cl)c3)nc(NCCO)[nH]c21	3.8
NC(=O)c1ccc2[nH]c(-c3ccc(Oc4ccc(Cl)cc4)cc3)nc2c1	-0.8

Target: Casein kinase I isoform gamma-3 (Homo sapiens) (UniProt Q9Y6M4)
Sequence (Q9Y6M4 whole entry, looked up, canonical isoform): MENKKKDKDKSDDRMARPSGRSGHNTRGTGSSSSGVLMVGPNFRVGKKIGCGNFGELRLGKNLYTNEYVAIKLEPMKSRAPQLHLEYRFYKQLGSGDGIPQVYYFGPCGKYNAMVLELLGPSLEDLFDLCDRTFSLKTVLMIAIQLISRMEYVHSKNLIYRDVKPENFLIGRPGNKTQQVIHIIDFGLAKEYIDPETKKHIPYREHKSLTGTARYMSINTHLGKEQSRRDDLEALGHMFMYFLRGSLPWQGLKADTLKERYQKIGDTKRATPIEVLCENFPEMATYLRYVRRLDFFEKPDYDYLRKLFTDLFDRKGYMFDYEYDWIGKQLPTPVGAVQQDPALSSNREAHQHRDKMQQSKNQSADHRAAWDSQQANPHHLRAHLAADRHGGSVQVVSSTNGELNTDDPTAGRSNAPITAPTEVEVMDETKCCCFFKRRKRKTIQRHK

Compound	ΔTm [°C]
COc1cccc(-c2cc(=O)c3ccccc3o2)c1N	0.1
CC(C)n1cnc2/c(=N/c3cccc(Cl)c3)nc(NCCO)[nH]c21	7
NC(=O)c1ccc2[nH]c(-c3ccc(Oc4ccc(Cl)cc4)cc3)nc2c1	1.3

Target: Tyrosine-protein kinase JAK1 (Homo sapiens) (UniProt P23458)

Compound	ΔTm [°C]
COc1cccc(-c2cc(=O)c3ccccc3o2)c1N	1
CC(C)n1cnc2/c(=N/c3cccc(Cl)c3)nc(NCCO)[nH]c21	3.7
NC(=O)c1ccc2[nH]c(-c3ccc(Oc4ccc(Cl)cc4)cc3)nc2c1	1.7

Target: T2, Serine/threonine-protein kinase VRK3 (Homo sapiens) (UniProt Q8IV63)
T2 sequence (whole entry): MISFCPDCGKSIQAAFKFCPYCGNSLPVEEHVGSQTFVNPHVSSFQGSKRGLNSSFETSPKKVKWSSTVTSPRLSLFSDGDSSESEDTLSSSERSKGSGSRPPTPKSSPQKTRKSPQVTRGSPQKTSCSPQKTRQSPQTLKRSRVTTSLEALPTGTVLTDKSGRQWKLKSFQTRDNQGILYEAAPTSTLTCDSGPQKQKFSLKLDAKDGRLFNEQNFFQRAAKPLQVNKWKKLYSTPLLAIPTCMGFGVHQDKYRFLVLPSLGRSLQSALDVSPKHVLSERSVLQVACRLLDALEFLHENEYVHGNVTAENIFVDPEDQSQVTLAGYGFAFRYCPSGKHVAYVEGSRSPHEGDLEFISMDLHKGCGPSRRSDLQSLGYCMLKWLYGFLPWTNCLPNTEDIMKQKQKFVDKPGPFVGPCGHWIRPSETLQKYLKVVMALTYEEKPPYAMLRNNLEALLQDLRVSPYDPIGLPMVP

Compound	ΔTm [°C]
COc1cccc(-c2cc(=O)c3ccccc3o2)c1N	0.6
CC(C)n1cnc2/c(=N/c3cccc(Cl)c3)nc(NCCO)[nH]c21	0.4
NC(=O)c1ccc2[nH]c(-c3ccc(Oc4ccc(Cl)cc4)cc3)nc2c1	1.2

Target: 5'-AMP-activated protein kinase catalytic subunit alpha-2 (Homo sapiens) (UniProt P54646)
Sequence (P54646 whole entry, looked up): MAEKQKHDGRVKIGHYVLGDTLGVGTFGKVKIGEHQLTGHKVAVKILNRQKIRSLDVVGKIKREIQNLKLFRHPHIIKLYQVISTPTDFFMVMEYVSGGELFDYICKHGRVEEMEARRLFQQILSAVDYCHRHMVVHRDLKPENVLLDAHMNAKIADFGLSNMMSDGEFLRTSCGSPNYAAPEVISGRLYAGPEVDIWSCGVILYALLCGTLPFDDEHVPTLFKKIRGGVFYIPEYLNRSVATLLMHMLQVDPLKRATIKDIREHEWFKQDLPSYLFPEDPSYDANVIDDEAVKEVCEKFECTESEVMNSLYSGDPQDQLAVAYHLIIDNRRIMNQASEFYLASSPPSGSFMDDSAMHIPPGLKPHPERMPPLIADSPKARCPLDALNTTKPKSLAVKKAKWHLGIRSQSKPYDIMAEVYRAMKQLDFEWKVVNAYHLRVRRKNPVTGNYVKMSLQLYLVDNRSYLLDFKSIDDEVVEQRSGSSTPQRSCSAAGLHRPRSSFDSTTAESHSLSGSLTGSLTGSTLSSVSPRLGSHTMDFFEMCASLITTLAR

Compound	ΔTm [°C]
COc1cccc(-c2cc(=O)c3ccccc3o2)c1N	-0.5
CC(C)n1cnc2/c(=N/c3cccc(Cl)c3)nc(NCCO)[nH]c21	0.3
NC(=O)c1ccc2[nH]c(-c3ccc(Oc4ccc(Cl)cc4)cc3)nc2c1	-0.9

Target: T3, Serine/threonine-protein kinase 17A (Homo sapiens) (UniProt Q9UEE5)
T3 sequence (whole entry): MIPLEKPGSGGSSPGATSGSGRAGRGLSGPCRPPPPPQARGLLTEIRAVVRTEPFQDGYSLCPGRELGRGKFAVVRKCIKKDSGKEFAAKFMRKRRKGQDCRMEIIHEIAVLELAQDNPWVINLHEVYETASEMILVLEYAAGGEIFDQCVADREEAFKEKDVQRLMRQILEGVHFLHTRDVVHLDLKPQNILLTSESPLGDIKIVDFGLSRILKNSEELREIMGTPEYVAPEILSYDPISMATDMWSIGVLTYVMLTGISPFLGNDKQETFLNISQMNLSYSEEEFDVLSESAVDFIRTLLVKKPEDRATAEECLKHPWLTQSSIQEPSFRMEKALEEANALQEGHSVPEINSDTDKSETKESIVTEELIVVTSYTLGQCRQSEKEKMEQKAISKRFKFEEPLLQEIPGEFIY

Compound	ΔTm [°C]
COc1cccc(-c2cc(=O)c3ccccc3o2)c1N	0.7
CC(C)n1cnc2/c(=N/c3cccc(Cl)c3)nc(NCCO)[nH]c21	1.4
NC(=O)c1ccc2[nH]c(-c3ccc(Oc4ccc(Cl)cc4)cc3)nc2c1	0.7

Target: Serine/threonine-protein kinase pim-2 (Homo sapiens, UniProt Q9P1W9)
Sequence (Q9P1W9 whole entry, looked up): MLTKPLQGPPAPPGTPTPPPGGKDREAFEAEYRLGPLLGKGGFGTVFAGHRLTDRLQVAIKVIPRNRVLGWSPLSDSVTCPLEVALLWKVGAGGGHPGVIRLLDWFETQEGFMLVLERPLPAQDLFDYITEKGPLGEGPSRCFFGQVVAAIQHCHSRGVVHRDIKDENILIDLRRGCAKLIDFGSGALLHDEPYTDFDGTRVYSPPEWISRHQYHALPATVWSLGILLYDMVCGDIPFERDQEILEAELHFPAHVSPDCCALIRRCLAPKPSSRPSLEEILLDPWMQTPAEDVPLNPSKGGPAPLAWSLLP

Compound	ΔTm [°C]
COc1cccc(-c2cc(=O)c3ccccc3o2)c1N	0.2
CC(C)n1cnc2/c(=N/c3cccc(Cl)c3)nc(NCCO)[nH]c21	0.6
NC(=O)c1ccc2[nH]c(-c3ccc(Oc4ccc(Cl)cc4)cc3)nc2c1	1

Target: Cyclin-dependent kinase 16 (Homo sapiens) (UniProt Q00536)

Compound	ΔTm [°C]
COc1cccc(-c2cc(=O)c3ccccc3o2)c1N	-0.2
CC(C)n1cnc2/c(=N/c3cccc(Cl)c3)nc(NCCO)[nH]c21	0.1
NC(=O)c1ccc2[nH]c(-c3ccc(Oc4ccc(Cl)cc4)cc3)nc2c1	-1.4

Target: Serine/threonine-protein kinase Nek6 (Homo sapiens) (UniProt Q9HC98)
Sequence (Q9HC98 whole entry): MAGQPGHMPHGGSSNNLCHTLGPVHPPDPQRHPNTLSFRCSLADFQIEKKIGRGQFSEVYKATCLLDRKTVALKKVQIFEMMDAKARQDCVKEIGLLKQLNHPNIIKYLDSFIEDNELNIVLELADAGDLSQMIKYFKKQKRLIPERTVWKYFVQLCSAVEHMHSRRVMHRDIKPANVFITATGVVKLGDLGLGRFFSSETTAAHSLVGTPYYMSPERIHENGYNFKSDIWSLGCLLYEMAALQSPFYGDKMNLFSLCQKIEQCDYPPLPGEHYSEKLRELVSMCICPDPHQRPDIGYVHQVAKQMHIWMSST

Compound	ΔTm [°C]
COc1cccc(-c2cc(=O)c3ccccc3o2)c1N	-0.1
CC(C)n1cnc2/c(=N/c3cccc(Cl)c3)nc(NCCO)[nH]c21	0.1
NC(=O)c1ccc2[nH]c(-c3ccc(Oc4ccc(Cl)cc4)cc3)nc2c1	0.4
